ChEMBL document CHEMBL1201862, “PubChem BioAssay data set” (2004)
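Cultured in 96-well plates, cells were exposed to test compound for 48 hours across five concentrations. At the GI50, growth is halved.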 Activity calls are given as the source filed them. Cut-off read from the data, not from the text of the source: active = GI50 up to about 1.1 µM and inactive = higher.

Assays:
Assay in all cases: DTP human tumour cell line panel, 48 h
SN12C = tested on: SN12C
786-0 = tested on: 786-0
NCI-H460 = tested on: NCI-H460
UACC-257 = tested on: UACC-257
SF-268 = tested on: SF-268
COLO 205 = tested on: COLO 205
NCI-H522 = tested on: NCI-H522
OVCAR-3 = tested on: OVCAR-3
SK-MEL-28 = tested on: SK-MEL-28
HCC 2998 = tested on: HCC 2998
DLD-1 = tested on: DLD-1
RXF 631 = tested on: RXF 631
LOX IMVI = tested on: LOX IMVI
RXF 393 = tested on: RXF 393
DMS-114 = tested on: DMS-114
NCI-H23 = tested on: NCI-H23
A498 = tested on: A498
SNB-78 = tested on: SNB-78
K562 = tested on: K562
SF-539 = tested on: SF-539
SK-MEL-5 = tested on: SK-MEL-5
OVCAR-5 = tested on: OVCAR-5
HT-29 = tested on: HT-29
UO-31 = tested on: UO-31
TK-10 = tested on: TK-10
HCT-116 = tested on: HCT-116
SF-295 = tested on: SF-295
HCT-15 = tested on: HCT-15
Malme-3M = tested on: Malme-3M
SR = tested on: SR
SW-620 = tested on: SW-620
SNB-19 = tested on: SNB-19
HL-60 = tested on: HL-60
U-251 = tested on: U-251
EKVX = tested on: EKVX
LXFL 529 = tested on: LXFL 529
HOP-92 = tested on: HOP-92
MOLT-4 = tested on: MOLT-4
UACC-62 = tested on: UACC-62
CCRF-CEM = tested on: CCRF-CEM
KM-20L2 = tested on: KM-20L2
M19-MEL = tested on: M19-MEL
IGROV-1 = tested on: IGROV-1
RPMI-8226 = tested on: RPMI-8226
DMS-273 = tested on: DMS-273
HOP-62 = tested on: HOP-62
SK-OV-3 = tested on: SK-OV-3
NCI-H226 = tested on: NCI-H226
SNB-75 = tested on: SNB-75
OVCAR-8 = tested on: OVCAR-8
HOP-18 = tested on: HOP-18
OVCAR-4 = tested on: OVCAR-4
XF498 = tested on: XF498
KM12 = tested on: KM12
CAKI-1 = tested on: CAKI-1
M14 = tested on: M14
A549 = tested on: A549
ACHN = tested on: ACHN
SK-MEL-2 = tested on: SK-MEL-2

With CCC(CC)n1cc(C(=O)NC(=O)NCCCCCOC(=O)CCCCCCCCCCC(=O)OCCCCCNC(=O)NC(=O)c2cn(C(CC)CC)c(=O)[nH]c2=O)c(=O)[nH]c1=O as the compound, how does the GI50 (SN12C) read?
The GI50 was > 100 µM (inactive).

And the GI50 (786-0)?
Its GI50 is 45.8 µM (inactive).

And the GI50 (NCI-H460)?
Its GI50 is > 100 µM (inactive).

And the GI50 (UACC-257)?
Its GI50 is > 100 µM (inactive).

And the GI50 (SF-268)?
The GI50 was > 100 µM (inactive).

What about the GI50 (COLO 205) of the same compound?
The GI50 was > 100 µM (inactive).

And the GI50 (NCI-H522)?
Its GI50 is > 100 µM (inactive).

And the GI50 (OVCAR-3)?
The GI50 was > 100 µM (inactive).

What about the GI50 (SK-MEL-28) of the same compound?
The GI50 was > 100 µM (inactive).

And the GI50 (HCC 2998)?
Its GI50 is > 100 µM (inactive).

And the GI50 (DLD-1)?
Its GI50 is > 100 µM (inactive).

And the GI50 (RXF 631)?
Its GI50 is > 100 µM (inactive).

What about the GI50 (LOX IMVI) of the same compound?
The GI50 was > 100 µM (inactive).

And the GI50 (RXF 393)?
The GI50 was 29.1 µM (inactive).

And the GI50 (DMS-114)?
Its GI50 is > 100 µM (inactive).

And the GI50 (NCI-H23)?
The GI50 was > 100 µM (inactive).

And the GI50 (A498)?
The GI50 was > 100 µM (inactive).

And the GI50 (SNB-78)?
Its GI50 is > 100 µM (inactive).

And the GI50 (K562)?
Its GI50 is > 100 µM (inactive).

And the GI50 (SF-539)?
Its GI50 is 47.2 µM (inactive).

And the GI50 (SK-MEL-5)?
Its GI50 is > 100 µM (inactive).

What about the GI50 (OVCAR-5) of the same compound?
Its GI50 is > 100 µM (inactive).

And the GI50 (HT-29)?
Its GI50 is > 100 µM (inactive).

What about the GI50 (UO-31) of the same compound?
The GI50 was > 100 µM (inactive).

What about the GI50 (TK-10) of the same compound?
Its GI50 is > 100 µM (inactive).

What about the GI50 (HCT-116) of the same compound?
The GI50 was > 100 µM (inactive).

What about the GI50 (SF-295) of the same compound?
The GI50 was > 100 µM (inactive).

And the GI50 (HCT-15)?
Its GI50 is > 100 µM.

And the GI50 (Malme-3M)?
Its GI50 is > 100 µM (inactive).

What about the GI50 (SR) of the same compound?
Its GI50 is > 100 µM (inactive).

What about the GI50 (SW-620) of the same compound?
The GI50 was > 100 µM (inactive).

And the GI50 (SNB-19)?
The GI50 was 27.7 µM (inactive).

And the GI50 (HL-60)?
The GI50 was > 100 µM (inactive).

And the GI50 (U-251)?
The GI50 was 88.3 µM (inactive).

What about the GI50 (EKVX) of the same compound?
The GI50 was > 100 µM (inactive).

What about the GI50 (LXFL 529) of the same compound?
The GI50 was 62.8 µM (inactive).

What about the GI50 (HOP-92) of the same compound?
Its GI50 is > 100 µM (inactive).

What about the GI50 (MOLT-4) of the same compound?
The GI50 was > 100 µM (inactive).

And the GI50 (UACC-62)?
The GI50 was > 100 µM (inactive).

And the GI50 (CCRF-CEM)?
Its GI50 is > 100 µM (inactive).

And the GI50 (KM-20L2)?
Its GI50 is > 100 µM (inactive).

And the GI50 (M19-MEL)?
The GI50 was > 100 µM (inactive).

What about the GI50 (IGROV-1) of the same compound?
Its GI50 is > 100 µM (inactive).

And the GI50 (RPMI-8226)?
Its GI50 is > 100 µM (inactive).

What about the GI50 (DMS-273) of the same compound?
Its GI50 is > 100 µM (inactive).

What about the GI50 (HOP-62) of the same compound?
The GI50 was > 100 µM (inactive).

What about the GI50 (SK-OV-3) of the same compound?
The GI50 was > 100 µM (inactive).

What about the GI50 (NCI-H226) of the same compound?
Its GI50 is > 100 µM (inactive).

What about the GI50 (SNB-75) of the same compound?
Its GI50 is 22.8 µM (inactive).

What about the GI50 (OVCAR-8) of the same compound?
Its GI50 is 64.3 µM (inactive).

And the GI50 (HOP-18)?
Its GI50 is > 100 µM (inactive).

And the GI50 (OVCAR-4)?
Its GI50 is > 100 µM (inactive).

What about the GI50 (XF498) of the same compound?
The GI50 was > 100 µM (inactive).

And the GI50 (KM12)?
Its GI50 is > 100 µM (inactive).

And the GI50 (CAKI-1)?
The GI50 was > 100 µM (inactive).

What about the GI50 (M14) of the same compound?
Its GI50 is > 100 µM (inactive).

And the GI50 (A549)?
The GI50 was > 100 µM (inactive).

What about the GI50 (ACHN) of the same compound?
The GI50 was > 100 µM (inactive).

What does the source list for Oc1ccccc1/C=C/c1csnn1?
GI50 (SN12C): > 100 µM (inactive); GI50 (786-0): > 31.6 µM (inactive); GI50 (NCI-H460): > 69.7 µM (inactive); GI50 (UACC-257): > 100 µM (inactive); GI50 (SF-268): > 100 µM (inactive); GI50 (COLO 205): > 100 µM (inactive); GI50 (NCI-H522): > 100 µM (inactive); GI50 (OVCAR-3): > 100 µM (inactive); GI50 (SK-MEL-28): > 100 µM (inactive); GI50 (HCC 2998): > 100 µM (inactive); GI50 (DLD-1): > 100 µM (inactive); GI50 (RXF 631): > 100 µM (inactive); GI50 (LOX IMVI): > 52.1 µM (inactive); GI50 (RXF 393): > 100 µM (inactive); GI50 (DMS-114): > 84.1 µM (inactive); GI50 (NCI-H23): > 100 µM (inactive); GI50 (A498): > 100 µM (inactive); GI50 (SNB-78): > 100 µM (inactive); GI50 (K562): > 100 µM (inactive); GI50 (SF-539): > 100 µM (inactive); GI50 (SK-MEL-5): > 100 µM (inactive); GI50 (OVCAR-5): > 100 µM (inactive); GI50 (HT-29): > 100 µM (inactive); GI50 (UO-31): > 100 µM (inactive); GI50 (TK-10): > 100 µM (inactive); GI50 (HCT-116): 98.4 µM (inactive); GI50 (SF-295): > 100 µM (inactive); GI50 (HCT-15): > 51.4 µM; GI50 (Malme-3M): > 100 µM (inactive); GI50 (SK-MEL-2): > 100 µM (inactive); GI50 (SR): > 46.2 µM (inactive); GI50 (SW-620): > 65.9 µM (inactive); GI50 (SNB-19): > 100 µM (inactive); GI50 (HL-60): 39.4 µM (inactive); GI50 (U-251): > 100 µM (inactive); GI50 (EKVX): > 100 µM (inactive); GI50 (LXFL 529): > 100 µM (inactive); GI50 (HOP-92): > 100 µM (inactive); GI50 (MOLT-4): > 100 µM (inactive); GI50 (UACC-62): > 100 µM (inactive); GI50 (CCRF-CEM): > 100 µM (inactive); GI50 (KM-20L2): > 100 µM (inactive); GI50 (M19-MEL): > 100 µM (inactive); GI50 (IGROV-1): > 100 µM (inactive); GI50 (RPMI-8226): > 100 µM (inactive); GI50 (DMS-273): > 100 µM (inactive); GI50 (HOP-62): > 100 µM (inactive); GI50 (SK-OV-3): > 100 µM (inactive); GI50 (NCI-H226): > 100 µM (inactive); GI50 (SNB-75): > 100 µM (inactive); GI50 (OVCAR-8): > 100 µM (inactive); GI50 (HOP-18): > 100 µM (inactive); GI50 (OVCAR-4): > 100 µM (inactive); GI50 (XF498): > 100 µM (inactive); GI50 (KM12): > 100 µM (inactive); GI50 (CAKI-1): > 100 µM (inactive); GI50 (M14): > 100 µM (inactive); GI50 (A549): > 100 µM (inactive); GI50 (ACHN): > 100 µM (inactive)
